Laboratory results reported in patent US20070276134A1, “COMPOSITIONS AND METHODS FOR COMPLEXES OF NUCLEIC ACIDS AND ORGANIC CATIONS” (NASTECH PHARMACEUTICAL COMPANY INC., priority 2006, published 2007).

Experiment: LogP determination in n-octanol and water, classical equilibrium partitioning method
Experimental: A LogP determination was performed on the salts in n-octanol and water using the classical equilibrium partitioning method. This was performed to evaluate the hydrophobic physical properties of the peptide and determine if there was a difference in the apparent hydrophobicity of the salt form of the siRNA versus the control of the sodium salt of siRNA.

LogP (n-octanol and water, salt form of siRNA)	partitioning as a salt versus partitioning as the sodium salt siRNA complex of DOTAP (1-octanol)	Substance
−1.98		Sodium
	distinctly different	DOTAP
